For assay [1], the target named is T1, NLRP3 inflammasome (Homo sapiens, UniProt Q96P20).
T1 construct: endogenous in cells; host or cells: THP-1 monocytic cells
The assay is described as follows: IL-1β secretion assay (NLRP3 IC50) in LPS-primed, nigericin-activated THP-1 cells, HTRF. Format: cell-based. Particulars: monocytic THP-1 cells; LPS 10 ng/mL 3 h priming, then compound + nigericin 10 μM 2 h; relative IC50, 10 concentrations, geometric mean. An outline of the steps: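 THP-1 cells primed with LPS 10 ng/mL for 3 h at 37° C., then compound (10-point 1:3 dilution, 0.1% DMSO) added with 10 μM nigericin for 2 h. Supernatant IL-1β measured by HTRF; relative IC50 from a 4-parameter logistic fit, reported as geometric mean.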
(Time-resolved FRET reads energy transfer from a long-lived donor to a nearby acceptor.)

Assay [2] has as its system NF-kB pathway (TNF-α secretion by THP-1 cells). Description: TNF-α secretion assay in LPS-stimulated THP-1 cells, Lumit immunoassay. Type of assay: cell-based, human. Particulars: Homo sapiens, THP-1, 3 h, monocytic THP-1 cells, LPS 10 ng/mL, relative IC50, 10 concentrations, geometric mean. As for the experimental part: Monocytic THP-1 cells were maintained in RPMI 1640 media (Gibco 21875)+10% FBS, (Gibco 10500)+1% penicillin/streptomycin (Gibco 15140-122). Cells were then plated at 40,000 cells per well in 384-well cell culture plates (Corning 3542) and maintained with RPMI1640 (Gibco 11835)+5% FBS, (Gibco 10500). Experimental compounds were prepared and added as described above. TNF-α secretion was triggered by the addition of 10 ng/mL LPS (invivoGen, tlrl-3pelps) and cells were incubated for 3 hours. TNF-α levels were monitored directly in the cells plate using an Lumit assay (Lumit TNFa-Human Immunoassay—Promega W6051) according to manufacturers' instructions.
Data were expressed as percentage of inhibition (I %) as compared to a maximum signal control containing no small molecule (I %=0%) according to the formula: 1%=(1−((Sample−Min))/((Max−Min)))×100, where: • Sample: Signal obtained in the presence of each compound tested, • Max: Maximum signal in the absence of compound added, • Min: Minimum or background signal obtained in the absence of activation signal.
Relative IC50 (IC50 rel) were obtained from a dose response curve with 10 concentrations. Final IC50 rels are expressed as the geometric mean.
Relative IC50 values were estimated with Biost@t-SPEED v2.4 internal software based on SAS system using the 4-parameter logistic model according to Ratkovsky and Reedy (D. A. Ratkovsky, T. J. Reedy, Choosing near-linear parameters in the four parameters logistic model radioligands and related assays. Biometrics, 42 (1986), 575-582): Y=A+C/((1+exp(−B*(log(X)−M)))), where: • A: Lower asymptote (BOTTOM), • A+C: Upper asymptote (TOP), • M: the logarithm of the concentration estimated at the inflexion point (the logarithm of the relative IC50), • B: Slope at the inflexion point of the curve.

Here are results for 26 molecules from US20240360151A1 (SANOFI, priority 2023, published 2024).

T1 sequence (Q96P20 whole entry): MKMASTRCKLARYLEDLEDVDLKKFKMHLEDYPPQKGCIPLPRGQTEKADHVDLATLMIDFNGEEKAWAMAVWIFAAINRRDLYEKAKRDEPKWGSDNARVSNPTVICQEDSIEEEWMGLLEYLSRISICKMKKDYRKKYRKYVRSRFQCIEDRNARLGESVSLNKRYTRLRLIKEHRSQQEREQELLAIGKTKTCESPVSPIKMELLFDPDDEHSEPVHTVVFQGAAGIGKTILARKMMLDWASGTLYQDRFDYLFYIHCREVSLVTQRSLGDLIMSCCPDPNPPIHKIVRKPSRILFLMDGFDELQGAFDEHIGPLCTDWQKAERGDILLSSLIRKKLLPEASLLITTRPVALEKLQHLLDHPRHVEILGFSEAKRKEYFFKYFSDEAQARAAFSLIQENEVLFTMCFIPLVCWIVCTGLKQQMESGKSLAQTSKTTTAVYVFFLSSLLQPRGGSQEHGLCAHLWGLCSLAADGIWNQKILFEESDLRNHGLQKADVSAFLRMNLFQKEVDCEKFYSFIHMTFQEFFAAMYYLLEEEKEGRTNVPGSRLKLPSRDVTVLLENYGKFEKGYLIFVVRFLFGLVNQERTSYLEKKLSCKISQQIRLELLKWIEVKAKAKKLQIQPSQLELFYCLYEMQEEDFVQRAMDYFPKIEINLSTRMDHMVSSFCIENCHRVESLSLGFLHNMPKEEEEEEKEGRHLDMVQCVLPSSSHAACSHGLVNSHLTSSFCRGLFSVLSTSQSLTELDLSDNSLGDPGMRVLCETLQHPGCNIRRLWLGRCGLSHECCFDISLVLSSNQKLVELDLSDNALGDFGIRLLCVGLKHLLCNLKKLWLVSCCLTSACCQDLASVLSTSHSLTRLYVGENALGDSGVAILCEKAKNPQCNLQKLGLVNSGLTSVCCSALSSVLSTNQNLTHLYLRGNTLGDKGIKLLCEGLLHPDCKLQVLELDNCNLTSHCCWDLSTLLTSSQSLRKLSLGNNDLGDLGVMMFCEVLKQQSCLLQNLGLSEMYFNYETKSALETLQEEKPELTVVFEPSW

On to `Cc1cc(C(F)(F)F)cc(O)c1-c1ccc(N2CC[C@H]3CNC[C@H]32)nn1` (racemic) [Example 229, 2-[6-[rac-(3aS,6aS)-3,3a,4,5,6,6a-hexahydro-2H-pyrrolo[3,4-b]pyrrol-1-yl]pyridazin-3-yl]-3-methyl-5-(trifluoromethyl)phenol], for which the IC50 (commonly the concentration that gives 50% inhibition) in assay [1] was 42 nM; in assay [2], over 10000 nM.
The corresponding values for `CN1CC[C@@H]2OCCN(c3cc(C(F)F)c(-c4ccc(C(F)(F)F)cc4O)nn3)[C@@H]2C1` [Example 268, 2-[6-[(4aR,8aS)-6-methyl-3,4a,5,7,8,8a-hexahydro-2H-pyrido[4,3-b][1,4]oxazin-4-yl]-4-(difluoromethyl)pyridazin-3-yl]-5-(trifluoromethyl)phenol] are 263 nM and over 10000 nM.
For `CCc1cccc(O)c1-c1cc(C(F)F)c(N2CCO[C@@H]3CCN(C)C[C@@H]32)nn1` [Example 425, 2-[6-[(4aS,8aR)-6-methyl-3,4a,5,7,8,8a-hexahydro-2H-pyrido[4,3-b][1,4]oxazin-4-yl]-5-(difluoromethyl)pyridazin-3-yl]-3-ethyl-phenol] the same measures were 55 nM and over 10000 nM.
For `Cc1cc(N2CC[C@H]3CCN(C)C[C@H]32)nnc1-c1ccc(C(F)(F)F)cc1O` (single isomer, unassigned) [Example 367] the same measures were 0.5 nM and over 10000 nM.
With `Cc1cc(C)c(-c2ccc(N3CC[C@@H]4CCN(C)C[C@@H]43)nn2)c(O)c1` (racemic) [Example 342, 3,5-dimethyl-2-[6-[rac-(3aS,7aR)-6-methyl-3,3a,4,5,7,7a-hexahydro-2H-pyrrolo[2,3-c]pyridin-1-yl]pyridazin-3-yl]phenol], the IC50 was 2 nM in assay [1] and over 10000 nM in assay [2].
As to `Cc1cc(Cl)cc(O)c1-c1ccc(N2CCO[C@H](CNC(=O)C(C)C)C2)nn1` [Example 279, N-[[(2R)-4-[6-(4-chloro-2-hydroxy-6-methylphenyl)pyridazin-3-yl]morpholin-2-yl]methyl]-2-methylpropanamide], the IC50 in assay [1] is 277 nM; in assay [2], over 10000 nM.
The corresponding values for `Oc1cc(C(F)(F)F)ccc1-c1nnc(N2CCO[C@@H]3CCNC[C@@H]32)cc1C(F)F` [Example 382, 2-[6-[(4aS,8aR)-2,3,4a,5,6,7,8,8a-octahydropyrido[4,3-b][1,4]oxazin-4-yl]-4-(difluoromethyl)pyridazin-3-yl]-5-(trifluoromethyl)phenol] are 12 nM and over 10000 nM.
The corresponding values for `Cc1c(-c2ccc(Cl)cc2O)nnc(N2CCO[C@H](CO)C2)c1C` [Example 81, 5-chloro-2-[6-[(2S)-2-(hydroxymethyl)morpholin-4-yl]-4,5-dimethyl-pyridazin-3-yl]phenol] are 164 nM and 9800 nM.
For `COC[C@@H]1CCCN1c1ccc(-c2c(C)cc(C(F)(F)F)cc2O)nn1` [Example 15, 2-[6-[(2S)-2-(methoxymethyl)pyrrolidin-1-yl]pyridazin-3-yl]-3-methyl-5-(trifluoromethyl)phenol] the same measures were 406 nM and over 10000 nM.
For the molecule `CCN1CC[C@@H]2OCCN(c3ccc(-c4c(C)cc(C(F)(F)F)cc4O)nn3)[C@@H]2C1` (single isomer, unassigned) [Example 255], the IC50 in assay [1] was 249 nM; in assay [2], over 10000 nM.
The corresponding values for `Cc1cc(C)c(-c2ccc(N3C[C@H](CO)O[C@H](C)C3)nn2)c(O)c1` [Example 365, 2-[6-[(2R,6R)-2-(hydroxymethyl)-6-methyl-morpholin-4-yl]pyridazin-3-yl]-3,5-dimethyl-phenol] are 28 nM and over 10000 nM.
On to `CC(=O)NC[C@H]1CCCN(c2ccc(-c3c(C)cc(C(F)(F)F)cc3O)nn2)C1` [Example 167, N-[[(3R)-1-[6-[2-hydroxy-6-methyl-4-(trifluoromethyl)phenyl]pyridazin-3-yl]-3-piperidyl]methyl]acetamide], for which the IC50 in assay [1] was 309 nM; in assay [2], over 10000 nM.
The corresponding values for `NC[C@H]1CCCN(c2ccc(-c3c(O)cc(Cl)cc3Cl)nn2)C1` [Example 22, 2-[6-[(3R)-3-(aminomethyl)-1-piperidyl]pyridazin-3-yl]-3,5-dichloro-phenol] are 153 nM and over 10000 nM.
The corresponding values for `Oc1cc(Cl)cc(Cl)c1-c1ccc(N2CCO[C@@H](CF)C2)nn1` (single isomer, unassigned) [Example 237] are 24 nM and 4120 nM.
In the case of `Cc1cc(Cl)cc(O)c1-c1ccc(N2CCO[C@H]3CCN(C)C[C@H]32)nn1` (racemic) [Example 224, 5-chloro-3-methyl-2-[6-[rac-(4aR,8aS)-6-methyl-3,4a,5,7,8,8a-hexahydro-2H-pyrido[4,3-b][1,4]oxazin-4-yl]pyridazin-3-yl]phenol], the figures for the IC50 in assay [1] and in assay [2] were 1 nM and over 10000 nM, respectively.
For the molecule `CC(=O)N1CC[C@@H]2OCCN(c3ccc(-c4c(C)cc(Cl)cc4O)nn3)[C@@H]2C1` (racemic) [Example 222, 1-[rac-(4aR,8aS)-4-[6-(4-chloro-2-hydroxy-6-methyl-phenyl)pyridazin-3-yl]-3,4a,5,7,8,8a-hexahydro-2H-pyrido[4,3-b][1,4]oxazin-6-yl]ethanone], the IC50 in assay [1] is 42 nM; in assay [2], over 10000 nM.
The corresponding values for `Cc1ccc(-c2nnc(N3CCO[C@H](CO)C3)cc2C(C)C)c(O)c1` [Example 74, 2-[6-[(2S)-2-(hydroxymethyl)morpholin-4-yl]-4-isopropyl-pyridazin-3-yl]-5-methyl-phenol] are 411 nM and over 10000 nM.
The corresponding values for `Cc1cc(C)c(-c2ccc(N3CCO[C@@H](CO)C3)nn2)c(O)c1` [Example 9, 2-[6-[(2R)-2-(hydroxymethyl)morpholin-4-yl]pyridazin-3-yl]-3,5-dimethyl-phenol] are 113 nM and over 10000 nM.
For `CCN1CC[C@@H]2OCCN(c3ccc(-c4c(C)cc(Cl)cc4O)nn3)[C@@H]2C1` (single isomer, unassigned) [Example 312] the same measures were 56 nM and over 10000 nM.
On to `Cc1ccc(C)c(-c2ccc(N3CCO[C@H](CO)C3)nn2)c1O` [Example 141, 2-[6-[(2S)-2-(hydroxymethyl)morpholin-4-yl]pyridazin-3-yl]-3,6-dimethylphenol], for which the IC50 in assay [1] is 131 nM; in assay [2] it was over 10000 nM.
For `CCc1cccc(O)c1-c1ccc(N2CC[C@@H]3CCN(C)C[C@@H]32)nn1` (racemic) [Example 388, 3-ethyl-2-[6-[rac-(3aS,7aR)-6-methyl-3,3a,4,5,7,7a-hexahydro-2H-pyrrolo[2,3-c]pyridin-1-yl]pyridazin-3-yl]phenol] the same measures were 1 nM and over 10000 nM.
For `Cc1cc(C)c(-c2ccc(N3CCO[C@H](CF)C3)nn2)c(O)c1` [Example 219, 2-[6-[(2S)-2-(fluoromethyl)morpholin-4-yl]pyridazin-3-yl]-3,5-dimethyl-phenol], the IC50 in assay [1] was 103 nM; in assay [2], over 10000 nM.
The corresponding values for `Cc1cc(C)c(-c2ccc(N3CCO[C@H]4CCNC[C@H]43)nn2)c(O)c1` (racemic) [Example 195, 3,5-dimethyl-2-[6-[rac-(4aR,8aS)-2,3,4a,5,6,7,8,8a-octahydropyrido[4,3-b][1,4]oxazin-4-yl]pyridazin-3-yl]phenol] are 14 nM and over 10000 nM.
The corresponding values for `Cc1cc(C)c(-c2ccc(N3CCO[C@H]4CN(C5CCC5)CC[C@H]43)nn2)c(O)c1` (racemic) [Example 4, 3,5-dimethyl-2-[6-[rac-(4aS,8aR)-6-cyclobutyl-3,4a,5,7,8,8a-hexahydro-2H-pyrido[3,4-b][1,4]oxazin-1-yl]pyridazin-3-yl]phenol] are 251 nM and over 10000 nM.
On to `Cc1ccc(-c2nnc(N3CCO[C@H](CO)C3)cc2C)c(O)c1` [Example 76, 2-[6-[(2S)-2-(hydroxymethyl)morpholin-4-yl]-4-methyl-pyridazin-3-yl]-5-methyl-phenol], for which the IC50 worked out at 66 nM in assay [1] and 8600 nM in assay [2].
The corresponding values for `Cc1ccc(-c2nnc(N3CCO[C@H](CO)C3)c3c2CCC3)c(O)c1` [Example 77, 2-[4-[(2S)-2-(hydroxymethyl)morpholin-4-yl]-6,7-dihydro-5H-cyclopenta[d]pyridazin-1-yl]-5-methyl-phenol] are 135 nM and over 10000 nM.
